Measured values: patent publication US10947389B2, “Composition, film, near infrared cut filter, laminate, pattern forming method, solid image pickup element, image display device, infrared sensor, and color filter” (FUJIFILM Corporation, priority 2016, dated 2021)

Legend:
[1] = Evaluation of absorption maximum and absorbance ratio (500 nm/λmax) in solution; assay type: physicochemical; details: for Absorbance Ratio (500 nm/λmax) / Absorption Maximum (nm): solvent chloroform; for λmax (nm) of Second Near Infrared Absorbing Compound: as listed in Table 58
From the text: In this specification, “having an absorption maximum in a wavelength range of 650 to 1000 nm” denotes having a maximum absorbance in a wavelength range of 650 to 1000 nm in an absorption spectrum of the near infrared absorbing compound in a solution. Examples of a measurement solvent used for the measurement of the absorption spectra of the near infrared absorbing compound in the solution include chloroform, methanol, dimethyl sulfoxide, ethyl acetate, and tetrahydrofuran. In the case of a compound which is soluble in chloroform, chloroform is used as the measurement solvent. In the case of a compound which is not soluble in chloroform, methanol is used. In addition, In the case of a compound which is not soluble in chloroform and methanol, dimethyl sulfoxide is used.
Each of the compounds was dissolved in a measurement solvent shown in the following tables (concentration: 2.5×10^−6 mol/L) to measure an absorption spectrum (optical path length: 10 mm).
In addition, an absorbance ratio (500 nm/λmax) as a value obtained by dividing an absorbance at a wavelength of 500 nm by an absorbance at an absorption maximum was evaluated based on the following criteria.
A: the absorbance ratio (500 nm/λmax) was 0.04 or lower
B: the absorbance ratio (500 nm/λmax) was higher 0.04 and 0.08 or lower
C: the absorbance ratio (500 nm/λmax) was higher than 0.08

[2] = Evaluation of solubility in water at 23° C.; assay type: physicochemical; details: stirred for 1 hour
Procedure: Each of the compounds was added to water at 23° C. under the atmospheric pressure, the components were stirred for 1 hour, and the solubility of the compound in water was obtained. The solubility of the compound was evaluated based on the following criteria.
A: the solubility in water at 23° C. was 0.1 mass % or lower
B: the solubility in water at 23° C. was higher than 0.1 mass % and 1 mass % or lower
C: the solubility in water at 23° C. was higher than 1 mass %

CCCCC(CC)CC(=O)NC1=CC(=[N+](c2ccc(C)cc2)c2ccc(C)cc2)C=C/C1=C1\C(=O)C(c2ccc(N(c3ccc(C)cc3)c3ccc(C)cc3)cc2NC(=O)CC(CC)CCCC)=C1[O-] (centres unmarked) [Compound Q-3]
Absorbance Ratio (500 nm/λmax) [1]: A (the absorbance ratio (500 nm/λmax) was 0.04 or lower)
Absorption Maximum (nm) [1]: 737 nm
Solubility [2]: A (the solubility in water at 23 °C was 0.1 mass % or lower)

CCCCC(CC)CC(=O)Nc1cc2c(cc1C1=C([O-])/C(=c3/cc4c(cc3NC(=O)CC(CC)CCCC)=[N+](C)C(C)C4(C)C)C1=O)C(C)(C)C(C)N2C (centres unmarked) [Compound Q-36]
λmax (nm) of Second Near Infrared Absorbing Compound [1]: 704 nm
Absorbance Ratio (500 nm/λmax) [1]: A (the absorbance ratio (500 nm/λmax) was 0.04 or lower)
Absorption Maximum (nm) [1]: 704 nm
Solubility [2]: A (the solubility in water at 23 °C was 0.1 mass % or lower)

CCCCC(CC)COc1ccc(B2N=c3/c(=C4/C(=O)C(c5ccc6cccc7c6c5NB(c5ccc(OCC(CC)CCCC)cc5)N7)=C4O)ccc4cccc(c34)N2)cc1 (centres unmarked) [Compound Q-39]
Absorbance Ratio (500 nm/λmax) [1]: A (the absorbance ratio (500 nm/λmax) was 0.04 or lower)
Absorption Maximum (nm) [1]: 822 nm
Solubility [2]: A (the solubility in water at 23 °C was 0.1 mass % or lower)

CCCCN1/C(=C/C2=C([O-])C(=C/c3sc4c5ccccc5ccc4[n+]3CCCC)/C2=O)Sc2c1ccc1ccccc21 [Compound Q-54]
Absorbance Ratio (500 nm/λmax) [1]: A (the absorbance ratio (500 nm/λmax) was 0.04 or lower)
Absorption Maximum (nm) [1]: 698 nm
Solubility [2]: A (the solubility in water at 23 °C was 0.1 mass % or lower)

CC(CCC(COc1ccc(-c2c3/c(=C(\C#N)c4cnc5cc(Cl)c(Cl)cc5n4)n(B(c4ccccc4)c4ccccc4)c(-c4ccc(O)cc4)c3/c(=C(\C#N)c3cnc4cc(Cl)c(Cl)cc4n3)n2B(c2ccccc2)c2ccccc2)cc1)C(C)CC(C)(C)C)CC(C)(C)C (centres unmarked) [Compound V-42]
Absorbance Ratio (500 nm/λmax) [1]: A (the absorbance ratio (500 nm/λmax) was 0.04 or lower)
Absorption Maximum (nm) [1]: 885 nm
Solubility [2]: A (the solubility in water at 23 °C was 0.1 mass % or lower)

CC(C)CCCCCCCC(CCCCCC(C)C)COc1ccc(-c2c3c(=C(C#N)c4nc5ccccc5o4)n(B(c4ccccc4)c4ccccc4)c(-c4ccc(OCC(CCCCCCCC(C)C)CCCCCC(C)C)cc4)c3c(=C(C#N)c3nc4ccccc4o3)n2B(c2ccccc2)c2ccccc2)cc1 (centres unmarked) [II-9]
Absorbance Ratio (500 nm/λmax) [1]: A (the absorbance ratio (500 nm/λmax) was 0.04 or lower)
Absorption Maximum (nm) [1]: 740 nm
Solubility [2]: A (the solubility in water at 23 °C was 0.1 mass % or lower)

CC(CCC(COc1ccc(-c2c3c(=C(C#N)c4nc5ccccc5o4)n(B(c4ccccc4)c4ccccc4)c(-c4ccc(OCC(CCC(C)CC(C)(C)C)C(C)CC(C)(C)C)cc4)c3c(=C(C#N)c3nc4ccccc4o3)n2B(c2ccccc2)c2ccccc2)cc1)C(C)CC(C)(C)C)CC(C)(C)C (centres unmarked) [II-10]
Absorbance Ratio (500 nm/λmax) [1]: A (the absorbance ratio (500 nm/λmax) was 0.04 or lower)
Absorption Maximum (nm) [1]: 740 nm
Solubility [2]: A (the solubility in water at 23 °C was 0.1 mass % or lower)

CC(C)CCCCCCCC(CCCCCC(C)C)COc1cccc(-c2c3c(=C(C#N)c4nc5ccccc5o4)n(B(c4ccccc4)c4ccccc4)c(-c4cccc(OCC(CCCCCCCC(C)C)CCCCCC(C)C)c4)c3c(=C(C#N)c3nc4ccccc4o3)n2B(c2ccccc2)c2ccccc2)c1 (centres unmarked) [II-27]
λmax (nm) of Second Near Infrared Absorbing Compound [1]: 743 nm
Absorbance Ratio (500 nm/λmax) [1]: A (the absorbance ratio (500 nm/λmax) was 0.04 or lower)
Absorption Maximum (nm) [1]: 743 nm
Solubility [2]: A (the solubility in water at 23 °C was 0.1 mass % or lower)

CCCCCCCCCCC(CCCCCCCC)COc1cccc(-c2c3/c(=C(\C#N)c4nc5ccccc5o4)n(B(c4ccccc4)c4ccccc4)c(-c4cccc(OCC(CCCCCCCC)CCCCCCCCCC)c4)c3/c(=C(\C#N)c3nc4ccccc4o3)n2B(c2ccccc2)c2ccccc2)c1 (centres unmarked) [II-29]
λmax (nm) of Second Near Infrared Absorbing Compound [1]: 743 nm
Absorbance Ratio (500 nm/λmax) [1]: A (the absorbance ratio (500 nm/λmax) was 0.04 or lower)
Absorption Maximum (nm) [1]: 743 nm
Solubility [2]: A (the solubility in water at 23 °C was 0.1 mass % or lower)

Cc1ccccc1B(c1ccccc1C)n1c(-c2ccc(OCC(CCCCCCCC(C)C)CCCCCC(C)C)cc2)c2c(=C(C#N)c3nc4ccccc4o3)n(B(c3ccccc3C)c3ccccc3C)c(-c3ccc(OCC(CCCCCCCC(C)C)CCCCCC(C)C)cc3)c2c1=C(C#N)c1nc2ccccc2o1 (centres unmarked) [II-43]
Absorbance Ratio (500 nm/λmax) [1]: A (the absorbance ratio (500 nm/λmax) was 0.04 or lower)
Absorption Maximum (nm) [1]: 732 nm
Solubility [2]: A (the solubility in water at 23 °C was 0.1 mass % or lower)

Cc1ccccc1B(c1ccccc1C)n1c(-c2ccc(OCC(CCC(C)CC(C)(C)C)C(C)CC(C)(C)C)cc2)c2/c(=C(\C#N)c3nc4ccccc4o3)n(B(c3ccccc3C)c3ccccc3C)c(-c3ccc(OCC(CCC(C)CC(C)(C)C)C(C)CC(C)(C)C)cc3)c2/c1=C(\C#N)c1nc2ccccc2o1 (centres unmarked) [II-44]
Absorbance Ratio (500 nm/λmax) [1]: A (the absorbance ratio (500 nm/λmax) was 0.04 or lower)
Absorption Maximum (nm) [1]: 732 nm
Solubility [2]: A (the solubility in water at 23 °C was 0.1 mass % or lower)

CC(C)CCCCCCCC(CCCCCC(C)C)COc1cccc(-c2c3c(=C(C#N)c4nc5ccccc5o4)n(B4Oc5ccccc5O4)c(-c4cccc(OCC(CCCCCCCC(C)C)CCCCCC(C)C)c4)c3c(=C(C#N)c3nc4ccccc4o3)n2B2Oc3ccccc3O2)c1 (centres unmarked) [II-91]
λmax (nm) of Second Near Infrared Absorbing Compound [1]: 679 nm
Absorbance Ratio (500 nm/λmax) [1]: A (the absorbance ratio (500 nm/λmax) was 0.04 or lower)
Absorption Maximum (nm) [1]: 679 nm
Solubility [2]: A (the solubility in water at 23 °C was 0.1 mass % or lower)

Cc1ccc2oc(C(C#N)=c3c4c(-c5ccc(OCC(CCCCCCCC(C)C)CCCCCC(C)C)cc5)n(B(c5ccccc5)c5ccccc5)c(=C(C#N)c5nc6cc(C)ccc6o5)c4c(-c4ccc(OCC(CCCCCCCC(C)C)CCCCCC(C)C)cc4)n3B(c3ccccc3)c3ccccc3)nc2c1 (centres unmarked) [II-167]
Absorbance Ratio (500 nm/λmax) [1]: A (the absorbance ratio (500 nm/λmax) was 0.04 or lower)
Absorption Maximum (nm) [1]: 745 nm
Solubility [2]: A (the solubility in water at 23 °C was 0.1 mass % or lower)

Cc1ccc2oc(C(C#N)=c3c4c(-c5ccc(OCC(CCC(C)CC(C)(C)C)C(C)CC(C)(C)C)cc5)n(B(c5ccccc5)c5ccccc5)c(=C(C#N)c5nc6cc(C)ccc6o5)c4c(-c4ccc(OCC(CCC(C)CC(C)(C)C)C(C)CC(C)(C)C)cc4)n3B(c3ccccc3)c3ccccc3)nc2c1 (centres unmarked) [II-168]
Absorbance Ratio (500 nm/λmax) [1]: A (the absorbance ratio (500 nm/λmax) was 0.04 or lower)
Absorption Maximum (nm) [1]: 745 nm
Solubility [2]: A (the solubility in water at 23 °C was 0.1 mass % or lower)

Cc1ccc2oc(/C(C#N)=c3/c4c(-c5ccc(O)cc5)n(B(c5ccccc5)c5ccccc5)/c(=C(/C#N)c5nc6cc(C)ccc6o5)c4c(-c4ccc(O)cc4)n3B(c3ccccc3)c3ccccc3)nc2c1 [II-184]
Absorbance Ratio (500 nm/λmax) [1]: A (the absorbance ratio (500 nm/λmax) was 0.04 or lower)
Absorption Maximum (nm) [1]: 749 nm
Solubility [2]: A (the solubility in water at 23 °C was 0.1 mass % or lower)

Cc1ccc2oc(C(C#N)=c3c4c(-c5cccc(OCC(CCCCCCCC(C)C)CCCCCC(C)C)c5)n(B(c5ccccc5)c5ccccc5)c(=C(C#N)c5nc6cc(C)ccc6o5)c4c(-c4cccc(OCC(CCCCCCCC(C)C)CCCCCC(C)C)c4)n3B(c3ccccc3)c3ccccc3)nc2c1 (centres unmarked) [II-185]
Absorbance Ratio (500 nm/λmax) [1]: A (the absorbance ratio (500 nm/λmax) was 0.04 or lower)
Absorption Maximum (nm) [1]: 748 nm
Solubility [2]: A (the solubility in water at 23 °C was 0.1 mass % or lower)

Cc1ccc2oc(/C(C#N)=c3/c4c(-c5cccc(OCC(CCC(C)CC(C)(C)C)C(C)CC(C)(C)C)c5)n(B(c5ccccc5)c5ccccc5)/c(=C(/C#N)c5nc6cc(C)ccc6o5)c4c(-c4cccc(OCC(CCC(C)CC(C)(C)C)C(C)CC(C)(C)C)c4)n3B(c3ccccc3)c3ccccc3)nc2c1 (centres unmarked) [II-186]
Second Near Infrared Absorbing Compound λmax (nm) ([1]; absorption maximum of the second near infrared absorbing compound): 743 nm
Absorbance Ratio (500 nm/λmax) [1]: A (the absorbance ratio (500 nm/λmax) was 0.04 or lower)
Absorption Maximum (nm) [1]: 748 nm
Solubility [2]: A (the solubility in water at 23 °C was 0.1 mass % or lower)
